“And” between values parts separate entries of the source, which are not always exact repeats. Equal values may be shown once.
Columns and labels:
[1] = 3D cell viability assay (MTS, collagen); assay type: cell-based, mouse; settings: mouse, replicates
Protocol: (§1) The 3D cell viability assays were performed using cells embedded into polymerized collagen at 2.5 mg ml^−1. KPC CAFs and CCs were seeded at 10,000 cells per well in a 96-well plate. MTS solution (Promega) was added to the cells at a 1:20 dilution and cells were incubated at 37 °C for 1.5 h. Cell proliferation rates were measured by detecting the absorbance at 490 nm using a microplate reader and three biological repeats were performed.
(§2) Data presented as mean values +/− SD. f. […] Data presented as mean values +/− SD. […] Data presented as mean values +/− SD. […] Data presented as mean values +/− SD. Ordinary one-way ANOVA for multiple comparison test performed. Source data

KPC CAFs = test: 3D cell viability assay (MTS, collagen); assay type: cell-based, mouse; settings: for 3D cell viability (MTS assay): replicates
Protocol: as §1, §2

KPC CCs = test: 3D cell viability assay (MTS, collagen); assay type: cell-based, mouse; settings: for 3D cell viability (MTS assay): KPC CC, replicates
Protocol: as §1, §2

LOX = test: Time-dependent inhibition with pre-incubation 0-240 min (Fig. 2d); assay type: biochemical
Source text: Data are presented as mean ± s.d. […] Data presented as mean ± s.d. […] Source data TEXT PRINTED IN THE PICTURE: (b) PXS-5505: Recombinant DAO IC50 (nM): >30,000; Recombinant SSAO/VAP1 IC50 (nM): >30,000; Recombinant MAO-A IC50 (nM): >30,000; Recombinant MAO-B IC50 (nM): >30,000 | (f) PXS-5505: Fibroblast LOX IC50 (nM): 4,930; Recombinant LOXL-1 IC50 (nM): 1,590; Recombinant LOXL-2 IC50 (nM): 570; Recombinant LOXL-3 IC50 (nM): 1,800; Recombinant LOXL-4 IC50 (nM): 190
Similar to other fluoroallylamine-based amine oxidase inhibitors, the mode of inhibition is assumed to be a two-step mechanism (Fig. 2c), with PXS-5505 reacting with the unique LTQ cofactor found within the active site. The fluoroallylamine facilitates the formation of a covalent, irreversible bond. […] Furthermore, in jump dilution experiments, there is no significant recovery of activity following rapid dilution (LOXL1 (5 ± 5% recovery, n = 4), LOXL2 (7 ± 1.2% recovery, n = 3) and LOXL3 (11 ± 2% recovery, n = 3)).

Cl.Cl.NC/C=C(\F)CS(=O)(=O)c1cccc2cccnc12.O [PXS-5505, (Z)-3-fluoro-4-(quinolin-8-ylsulfonyl)but-2-en-1-amine dihydrochloride monohydrate]
viability ([1]; KPC CAFs embedded in polymerized collagen (3D), PXS-5505 3 (unit inferred)): 97.2% | viability ([1]; KPC CAFs embedded in polymerized collagen (3D), PXS-5505 30 (unit inferred)): 87.5% | viability ([1]; KPC CAFs embedded in polymerized collagen (3D), PXS-5505 100 (unit inferred)): 99% | viability ([1]; KPC cancer cells (CCs) embedded in polymerized collagen (3D), KPC CC, PXS-5505 0.3 (unit inferred)): 97.5% | viability ([1]; KPC cancer cells (CCs) embedded in polymerized collagen (3D), KPC CC, PXS-5505 3 (unit inferred)): 108% | viability ([1]; KPC cancer cells (CCs) embedded in polymerized collagen (3D), KPC CC, PXS-5505 30 (unit inferred)): 100% | viability ([1]; KPC cancer cells (CCs) embedded in polymerized collagen (3D), KPC CC, PXS-5505 100 (unit inferred)): 96.7% | 3D cell viability (MTS assay) (KPC CAFs; PXS-5505 0.3 (unit not given)): 102.654 and 114.604 and 89.88 | 3D cell viability (MTS assay) (KPC CAFs; PXS-5505 3 (unit not given)): 96.8872 and 86.2796 | 3D cell viability (MTS assay) (KPC CAFs; PXS-5505 30 (unit not given)): 93.0804 and 86.6488 | 3D cell viability (MTS assay) (KPC CAFs; PXS-5505 100 (unit not given)): 93.525 and 85.922 | 3D cell viability (MTS assay) (KPC CAFs; PXS-5505 300 (unit not given)): 102.9 and 101.619 and 82.2294 | effect on proliferation, 3D (KPC CAFs; up to 300 µM): nor did it show any effect on proliferation | 3D cell viability (MTS assay) (KPC CCs; PXS-5505 0.3 (unit not given)): 101.864 and 94.0126 | 3D cell viability (MTS assay) (KPC CCs; PXS-5505 3 (unit not given)): 104.713 and 92.4708 | 3D cell viability (MTS assay) (KPC CCs; PXS-5505 30 (unit not given)): 96.3592 and 91.3434 | 3D cell viability (MTS assay) (KPC CCs; PXS-5505 100 (unit not given)): 92.997 and 88.536 | 3D cell viability (MTS assay) (KPC CCs; PXS-5505 300 (unit not given)): 102.736 and 92.2188 and 80.3582 | effect on proliferation, 3D (KPC CCs; KPC CCs, up to 300 µM): nor did it show any effect on proliferation | LOX specific activity (LOX; pre-incubation 0 min, log conc -4.52288): 32.1036 | LOX specific activity (LOX; pre-incubation 0 min, log conc -5): 64.3382 | LOX specific activity (LOX; pre-incubation 0 min, log conc -5.47756): 84.6897 | LOX specific activity (LOX; pre-incubation 0 min, log conc -5.95468): 91.8109 | LOX specific activity (LOX; pre-incubation 0 min, log conc -6.4318): 92.4662 | LOX specific activity (LOX; pre-incubation 0 min, log conc -6.91009): 98.7719 | LOX specific activity (LOX; pre-incubation 0 min, log conc -7.3851): 96.7913 | LOX specific activity (LOX; pre-incubation 0 min, log conc -7.86328): 102.005 | LOX specific activity (LOX; pre-incubation 0 min, log conc -8.34008): 102.107 | LOX specific activity (LOX; pre-incubation 0 min, log conc -8.81816): 98.6554 | LOX specific activity (LOX; pre-incubation 0 min, log conc -9.29414): 106.228 | LOX specific activity (LOX; pre-incubation 0 min, log conc -9.77126): 108.063 | LOX specific activity (LOX; pre-incubation 15 min, log conc -4.52288): 9.177 | LOX specific activity (LOX; pre-incubation 15 min, log conc -5): 32.3488 | LOX specific activity (LOX; pre-incubation 15 min, log conc -5.47756): 65.4986 | LOX specific activity (LOX; pre-incubation 15 min, log conc -5.95468): 81.8309 | LOX specific activity (LOX; pre-incubation 15 min, log conc -6.4318): 89.7677 | LOX specific activity (LOX; pre-incubation 15 min, log conc -6.91009): 93.4569 | LOX specific activity (LOX; pre-incubation 15 min, log conc -7.3851): 96.3684 | LOX specific activity (LOX; pre-incubation 15 min, log conc -7.86328): 90.7581 | LOX specific activity (LOX; pre-incubation 15 min, log conc -8.34008): 96.0493 | LOX specific activity (LOX; pre-incubation 15 min, log conc -8.81816): 95.7037 | LOX specific activity (LOX; pre-incubation 15 min, log conc -9.29414): 99.1403 | LOX specific activity (LOX; pre-incubation 15 min, log conc -9.77126): 98.9675 | LOX specific activity (LOX; pre-incubation 30 min, log conc -4.52288): 2.6085 | LOX specific activity (LOX; pre-incubation 30 min, log conc -5): 10.9871 | LOX specific activity (LOX; pre-incubation 30 min, log conc -5.47756): 44.0429 | LOX specific activity (LOX; pre-incubation 30 min, log conc -5.95468): 69.7571 | LOX specific activity (LOX; pre-incubation 30 min, log conc -6.4318): 82.4602 | LOX specific activity (LOX; pre-incubation 30 min, log conc -6.91009): 92.2531 | LOX specific activity (LOX; pre-incubation 30 min, log conc -7.3851): 91.8445 | LOX specific activity (LOX; pre-incubation 30 min, log conc -7.86328): 100.827 | LOX specific activity (LOX; pre-incubation 30 min, log conc -8.34008): 94.7736 | LOX specific activity (LOX; pre-incubation 30 min, log conc -8.81816): 95.6095 | LOX specific activity (LOX; pre-incubation 30 min, log conc -9.29414): 101.078 | LOX specific activity (LOX; pre-incubation 30 min, log conc -9.77126): 104.925 | LOX specific activity (LOX; pre-incubation 60 min, log conc -4.52288): -1.9 | LOX specific activity (LOX; pre-incubation 60 min, log conc -5): 1.453 | LOX specific activity (LOX; pre-incubation 60 min, log conc -5.47756): 20.7125 | LOX specific activity (LOX; pre-incubation 60 min, log conc -5.95468): 53.0465 | LOX specific activity (LOX; pre-incubation 60 min, log conc -6.4318): 78.5482 | LOX specific activity (LOX; pre-incubation 60 min, log conc -6.91009): 90.7227 | LOX specific activity (LOX; pre-incubation 60 min, log conc -7.3851): 95.8188 | LOX specific activity (LOX; pre-incubation 60 min, log conc -7.86328): 101.294 | LOX specific activity (LOX; pre-incubation 60 min, log conc -8.34008): 102.525 | LOX specific activity (LOX; pre-incubation 60 min, log conc -8.81816): 100.564 | LOX specific activity (LOX; pre-incubation 60 min, log conc -9.29414): 101.737 | LOX specific activity (LOX; pre-incubation 60 min, log conc -9.77126): 102.743 | LOX specific activity (LOX; pre-incubation 120 min, log conc -4.52288): 2.378 | LOX specific activity (LOX; pre-incubation 120 min, log conc -5): 0.7896 | LOX specific activity (LOX; pre-incubation 120 min, log conc -5.47756): 6.366 | LOX specific activity (LOX; pre-incubation 120 min, log conc -5.95468): 21.6941 | LOX specific activity (LOX; pre-incubation 120 min, log conc -6.4318): 62.059 | LOX specific activity (LOX; pre-incubation 120 min, log conc -6.91009): 92.1986 | LOX specific activity (LOX; pre-incubation 120 min, log conc -7.3851): 91.1259 | LOX specific activity (LOX; pre-incubation 120 min, log conc -7.86328): 98.8619 | LOX specific activity (LOX; pre-incubation 120 min, log conc -8.34008): 100.244 | LOX specific activity (LOX; pre-incubation 120 min, log conc -8.81816): 100.045 | LOX specific activity (LOX; pre-incubation 120 min, log conc -9.29414): 96.9572 | LOX specific activity (LOX; pre-incubation 120 min, log conc -9.77126): 100.753 | LOX specific activity (LOX; pre-incubation 240 min, log conc -4.52288): -3.18 | LOX specific activity (LOX; pre-incubation 240 min, log conc -5): 0.3645 | LOX specific activity (LOX; pre-incubation 240 min, log conc -5.47756): 8.283 | LOX specific activity (LOX; pre-incubation 240 min, log conc -5.95468): 6.894 | LOX specific activity (LOX; pre-incubation 240 min, log conc -6.4318): 35.306 | LOX specific activity (LOX; pre-incubation 240 min, log conc -6.91009): 69.9646 | LOX specific activity (LOX; pre-incubation 240 min, log conc -7.3851): 87.2279 | LOX specific activity (LOX; pre-incubation 240 min, log conc -7.86328): 94.5493 | LOX specific activity (LOX; pre-incubation 240 min, log conc -8.34008): 99.3255 | LOX specific activity (LOX; pre-incubation 240 min, log conc -8.81816): 102.317 | LOX specific activity (LOX; pre-incubation 240 min, log conc -9.29414): 102.769 | LOX specific activity (LOX; pre-incubation 240 min, log conc -9.77126): 103.159 | time-dependent inhibition of LOX specific activity (LOX; pre-incubation time 0–240 min): increased potency with increased pre-incubation time

Reference: PMC10518255, “A first-in-class pan-lysyl oxidase inhibitor impairs stromal remodeling and enhances gemcitabine response and survival in pancreatic cancer” (Nature Cancer, 2023)
